Experimental data as given in patent US5185349A, “Substituted amide ACAT inhibitors lactone derivatives” (priority 1991, dated 1993).
pIC50: −log10 of the molar value. Structures can show the parent of a compound that is named as a salt.

Molecular target: T1, acyl-CoA: cholesterol acyltransferase (ACAT) (Oryctolagus cuniculus, UniProt G1SFD9)
T1 construct: in a tissue preparation containing rabbit intestinal microsomes; from tissue; host or cells: rabbit intestine, microsomes
T1 sequence (G1SFD9 1-524): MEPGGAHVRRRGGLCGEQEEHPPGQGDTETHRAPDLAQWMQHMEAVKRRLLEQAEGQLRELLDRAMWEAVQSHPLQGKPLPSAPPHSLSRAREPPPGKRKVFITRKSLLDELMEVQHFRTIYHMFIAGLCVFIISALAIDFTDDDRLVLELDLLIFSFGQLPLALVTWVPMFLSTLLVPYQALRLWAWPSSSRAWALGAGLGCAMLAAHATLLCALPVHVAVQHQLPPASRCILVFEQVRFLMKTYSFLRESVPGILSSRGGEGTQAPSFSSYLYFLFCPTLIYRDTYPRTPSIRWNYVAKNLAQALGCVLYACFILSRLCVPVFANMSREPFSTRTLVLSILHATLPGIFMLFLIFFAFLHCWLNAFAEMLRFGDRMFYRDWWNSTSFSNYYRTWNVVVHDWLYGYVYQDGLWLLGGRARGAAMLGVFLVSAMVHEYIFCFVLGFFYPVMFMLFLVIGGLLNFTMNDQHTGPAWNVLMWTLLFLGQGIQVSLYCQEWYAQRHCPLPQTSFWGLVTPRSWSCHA
Test: in vitro ACAT inhibition test (radiolabeled cholesterol oleate formed from radiolabeled oleic acid, rabbit intestinal microsomes)
Format: biochemical
Details: concentration required to inhibit the activity of the enzyme by 50%
Protocol: The ability of representative compounds of the present invention to inhibit ACAT was measured using an in vitro test more fully described in F. J. Field and R. G. Salone, Biochemica et Biophysica 712:557-570 (1982). The test assesses the ability of a test compound to inhibit the acylation of cholesterol by oleic acid by measuring the amount of radiolabeled cholesterol oleate formed from radiolabeled oleic acid in a tissue preparation containing rabbit intestinal microsomes.
The data appear in Table 1 where they are expressed as IC50 values; i.e., the concentration of test compound required to inhibit the activity of the enzyme by 50%.

pIC50	Compound
6.23	CC(C)c1cccc(C(C)C)c1NC(=O)C1CC(c2ccc(F)cc2)OC1=O (centres unmarked) [Example 1, N-[2,6-bis(1-methylethyl)phenyl]-5-(4-fluorophenyl)tetrahydro-2-oxo-3-furancarboxamide]
6.59	CCCCCCCC1CC(C(=O)Nc2c(C(C)C)cccc2C(C)C)C(=O)O1 (centres unmarked) [Example 2, N-[2,6-bis(1-methylethyl)phenyl]-5-heptyltetrahydro-2-oxo-3-furancarboxamide]
6.39	CCCCCCC1CCC(C(=O)Nc2c(C(C)C)cccc2C(C)C)C(=O)O1 (centres unmarked) [Example 3, N-[2,6-bis(1-methylethyl)phenyl]-6-hexyltetrahydro-2-oxo-2H-pyran-3-carboxamide]
6.47	CCCCCCCC1CCC(C(=O)Nc2c(C(C)C)cccc2C(C)C)C(=O)O1 (centres unmarked) [Example 4, N-[2,6-bis(1-methylethyl)phenyl]-6-heptyltetrahydro-2-oxo-2H-pyran-3-carboxamide]
5.88	CC(C)c1cccc(C(C)C)c1NC(=O)C(CC(O)c1ccc(F)cc1)C(=O)O (stereo not drawn) [Example 7, γ-[2,6-bis(1-methylethyl)phenyl]-amino]carbonyl]-4-fluoro-α-hydroxybenzenebutanoic acid monosodium salt]
